Measured values published in US12233047B2, “Pharmaceutical combination and use thereof” (ASCENTAGE PHARMA (SUZHOU) CO., LTD., priority 2019, dated 2025).
Changes are numbered by the printed parent chain.

Legend:
[1] = molecular target: T1, FLT3 (K663Q) (Homo sapiens, UniProt P36888, K663Q); test: KINOMEscan kinase binding assay, FLT3 (K663Q)
T1 construct: host or cells: T7 phage in E. coli (BL21-derived) or HEK-293
T1 sequence (P36888 27-993 K663Q): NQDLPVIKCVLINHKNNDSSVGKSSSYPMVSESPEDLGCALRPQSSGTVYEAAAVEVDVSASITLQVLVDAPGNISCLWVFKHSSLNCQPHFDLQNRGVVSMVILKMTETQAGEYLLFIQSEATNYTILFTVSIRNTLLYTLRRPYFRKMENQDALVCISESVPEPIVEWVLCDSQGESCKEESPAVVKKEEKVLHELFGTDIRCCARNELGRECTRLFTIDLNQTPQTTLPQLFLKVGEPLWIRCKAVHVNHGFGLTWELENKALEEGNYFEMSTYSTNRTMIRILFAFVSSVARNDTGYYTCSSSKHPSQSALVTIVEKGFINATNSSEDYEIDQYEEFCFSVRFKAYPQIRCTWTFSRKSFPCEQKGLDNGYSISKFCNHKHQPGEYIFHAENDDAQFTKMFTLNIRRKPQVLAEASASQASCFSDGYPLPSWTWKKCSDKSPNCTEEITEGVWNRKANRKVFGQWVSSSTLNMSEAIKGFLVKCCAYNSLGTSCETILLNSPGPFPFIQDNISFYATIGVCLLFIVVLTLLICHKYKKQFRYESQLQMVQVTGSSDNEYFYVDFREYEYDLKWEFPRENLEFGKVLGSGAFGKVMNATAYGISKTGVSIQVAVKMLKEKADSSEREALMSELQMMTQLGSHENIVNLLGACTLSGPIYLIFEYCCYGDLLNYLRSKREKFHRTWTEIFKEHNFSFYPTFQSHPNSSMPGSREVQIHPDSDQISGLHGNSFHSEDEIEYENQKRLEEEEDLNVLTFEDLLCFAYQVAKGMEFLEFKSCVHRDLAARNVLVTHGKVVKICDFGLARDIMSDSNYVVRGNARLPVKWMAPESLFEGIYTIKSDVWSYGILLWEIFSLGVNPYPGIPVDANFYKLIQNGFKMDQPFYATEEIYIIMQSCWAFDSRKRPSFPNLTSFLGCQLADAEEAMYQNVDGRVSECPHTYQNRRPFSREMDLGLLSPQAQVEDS
Description: (§1) The kinase assay was conducted using KINOMEscan™.
(§2) Kinase-tagged T7 phage strains were grown in parallel in 24-well blocks in an E. coli host derived from the BL21 strain. E. coli were grown to log-phase and infected with T7 phage from a frozen stock (multiplicity of infection=0.4) and incubated with shaking at 32° C. until lysis (90-150 minutes). The lysates were centrifuged (6,000×g) and filtered (0.2 μm) to remove cell debris. The remaining kinases were produced in HEK-293 cells and subsequently tagged with DNA for qPCR detection. Streptavidin-coated magnetic beads were treated with biotinylated small molecule ligands for 30 minutes at room temperature to generate affinity resins for kinase assays. The liganded beads were blocked with excess biotin and washed with blocking buffer (SeaBlock (Pierce), 1% BSA, 0.05% Tween 20, 1 mM DTT) to remove unbound ligand and to reduce non-specific phage binding. Binding reactions were assembled by combining kinases, liganded affinity beads, and test compound (Compound 23) in 1× binding buffer (20% SeaBlock, 0.17×PBS, 0.05% Tween 20, 6 mM DTT). Test compound were prepared as 40× stocks in 100% DMSO and directly diluted into the assay. All reactions were performed in polypropylene 384-well plates in a final volume of 0.04 ml. […] The kinase concentration in the eluates was measured by qPCR. […]

[2] = molecular target: T2, FLT3 (N841I) (Homo sapiens, UniProt P36888, N841I); test: KINOMEscan kinase binding assay, FLT3 (N841I)
T2 construct: host or cells: T7 phage in E. coli (BL21-derived) or HEK-293
T2 sequence (P36888 27-993 N841I): T1 sequence (P36888 27-993 K663Q) with Q637K, N815I
Description: as §1, §2

With `Cc1ccc(C(=O)Nc2ccc(CN3CCN(C)CC3)c(C(F)(F)F)c2)cc1C#Cc1cnc2[nH]ncc2c1` [Compound 23, 3-(2-(1H-pyrazolo[3,4-b]pyridin-5-yl)ethynyl)-4-methyl-N-(4-((4-methylpiperazin-1-yl)methyl)-3-(trifluoromethyl)phenyl)benzamide] the “% Ctrl@10 nM” value ([1]; 10 nM) was 5 % Ctrl, the “% Ctrl@100 nM” value ([1]; 100 nM) was 0.6 % Ctrl and the “% Ctrl@10 nM” value ([2]; 10 nM) was 2.9 % Ctrl. The “% Ctrl@100 nM” value ([2]; 100 nM) was 0.05 % Ctrl.
